Results reported in the NIST ThermoML archive (doi:10.1021/acs.jced.6b00703).
± gives the expanded uncertainty stated by the source.

Details: 283.15 K; 101 kPa; Liquid; Drop weight

With `CCOC(C)=O` [ethyl acetate] + O as the molecule, how does the interfacial tension read?
Its interfacial tension is 7.61 ± 1 mN/m.

Which interfacial tension does the source give for `O=C1CCCCC1` [cyclohexanone] + O here?
The interfacial tension was 4.78 ± 1 mN/m.

With `CCCCOC(C)=O` [butyl ethanoate] + O as the molecule, how does the interfacial tension read?
Its interfacial tension is 15.3 ± 1 mN/m.

For `Cc1ccccc1` [toluene] + O, which interfacial tension is on record?
Its interfacial tension is 36.1 ± 1.1 mN/m.

Same assay, conditions: 289.15 K; 101 kPa; Liquid; Drop weight

For `CCOC(C)=O` [ethyl acetate] + O, which interfacial tension is on record?
The interfacial tension was 7.37 ± 1 mN/m.

With `O=C1CCCCC1` [cyclohexanone] + O as the molecule, how does the interfacial tension read?
Its interfacial tension is 4.43 ± 1 mN/m.

Which interfacial tension does the source give for `CCCCCCCCO` [octan-1-ol] + O here?
Its interfacial tension is 9.1 ± 1 mN/m.

With `CCCCOC(C)=O` [butyl ethanoate] + O as the molecule, how does the interfacial tension read?
The interfacial tension was 14.9 ± 1 mN/m.

Same assay, conditions: 290.15 K; 101 kPa; Liquid; Drop weight

Which interfacial tension does the source give for `CCCCOC(C)=O` [butyl ethanoate] + O here?
Its interfacial tension is 14.95 ± 1 mN/m.

For `Cc1ccccc1` [toluene] + O, which interfacial tension is on record?
Its interfacial tension is 35.8 ± 1.1 mN/m.

Same assay, conditions: 292.15 K; 101 kPa; Liquid; Drop weight

With `CCC(C)=O` [butanone] + O as the molecule, how does the interfacial tension read?
Its interfacial tension is 0.92 ± 1 mN/m.

Same assay, conditions: 293.15 K; 101 kPa; Liquid; Drop weight

With `CCOC(C)=O` [ethyl acetate] + O as the molecule, how does the interfacial tension read?
Its interfacial tension is 7.29 ± 1 mN/m.

Which interfacial tension does the source give for `O=C1CCCCC1` [cyclohexanone] + O here?
Its interfacial tension is 4.87 ± 1 mN/m.

With `CCCCOC(C)=O` [butyl ethanoate] + O as the molecule, how does the interfacial tension read?
The interfacial tension was 15.3 ± 1 mN/m.

With `CC1CCCCC1` [methylcyclohexane] + O as the molecule, how does the interfacial tension read?
The interfacial tension was 51.4 ± 1.1 mN/m.

With `Cc1ccccc1` [toluene] + O as the molecule, how does the interfacial tension read?
Its interfacial tension is 36.3 ± 1.1 mN/m.

Which interfacial tension does the source give for `CCOCC` [diethyl ether] + O here?
Its interfacial tension is 9.03 ± 1 mN/m.

Same assay, conditions: 303.15 K; 101 kPa; Liquid; Drop weight

Which interfacial tension does the source give for `CCOC(C)=O` [ethyl acetate] + O here?
The interfacial tension was 7.19 ± 1 mN/m.

For `O=C1CCCCC1` [cyclohexanone] + O, which interfacial tension is on record?
Its interfacial tension is 5.08 ± 1 mN/m.

For `CCCCOC(C)=O` [butyl ethanoate] + O, which interfacial tension is on record?
Its interfacial tension is 15.2 ± 1 mN/m.

Which interfacial tension does the source give for `Cc1ccccc1` [toluene] + O here?
The interfacial tension was 36 ± 1.1 mN/m.

Which interfacial tension does the source give for `OC1CCCCC1` [cyclohexanol] + O here?
Its interfacial tension is 4.17 ± 1 mN/m.

Same assay, conditions: 313.15 K; 101 kPa; Liquid; Drop weight

With `CCOC(C)=O` [ethyl acetate] + O as the molecule, how does the interfacial tension read?
The interfacial tension was 7.15 ± 1 mN/m.

Which interfacial tension does the source give for `O=C1CCCCC1` [cyclohexanone] + O here?
The interfacial tension was 5.05 ± 1 mN/m.

Which interfacial tension does the source give for `CCCCOC(C)=O` [butyl ethanoate] + O here?
Its interfacial tension is 15.1 ± 1 mN/m.

With `Cc1ccccc1` [toluene] + O as the molecule, how does the interfacial tension read?
The interfacial tension was 35.3 ± 1.1 mN/m.

Which interfacial tension does the source give for `OC1CCCCC1` [cyclohexanol] + O here?
The interfacial tension was 4.15 ± 1 mN/m.

Same assay, conditions: 323.15 K; 101 kPa; Liquid; Drop weight

With `CCOC(C)=O` [ethyl acetate] + O as the molecule, how does the interfacial tension read?
Its interfacial tension is 6.99 ± 1 mN/m.

For `O=C1CCCCC1` [cyclohexanone] + O, which interfacial tension is on record?
The interfacial tension was 4.71 ± 1 mN/m.

For `CCCCOC(C)=O` [butyl ethanoate] + O, which interfacial tension is on record?
Its interfacial tension is 14.3 ± 1 mN/m.

Which interfacial tension does the source give for `Cc1ccccc1` [toluene] + O here?
Its interfacial tension is 34 ± 1 mN/m.

Which interfacial tension does the source give for `OC1CCCCC1` [cyclohexanol] + O here?
The interfacial tension was 3.97 ± 1 mN/m.

Same assay, conditions: 333.15 K; 101 kPa; Liquid; Drop weight

Which interfacial tension does the source give for `OC1CCCCC1` [cyclohexanol] + O here?
Its interfacial tension is 3.95 ± 1 mN/m.
